Test results taken from patent US20040018515A1, “Compositions selective for adenosine diphosphate and methods of using same” (priority 2002, published 2004).

Key:
Assay type in all cases: biochemical
[1] = system: ppERK; test: Minimized ADP aptamer F01-based kinase SPA; design: Initial Rate: unit not given here; details: for inhibition of ppERK activity (decreased signal in the ADP SPA): non-biotinylated minimized ADP aptamer on capture probe, FIG. 44-46
Protocol: An ADP aptamer will concentrate the tritiated ADP released by kinase on the surface of the flash plate and generate a signal detectable in a Topcount scintillation counter. For the study presented, minimized ADP aptamer (JD37.98A) (FIG. 42, SEQ ID NO: 1 19) was directly 3′-biotinylated and immobilized onto NEN streptavidin flashplates. Specifically, select assay wells were incubated with 5 pmol of JD37.98A directly 3′-biotinylated aptamer in 25 μl of PBS Buffer:BupH (0.05% tRNA, 0.025% Tween 20) with shaking at 650 RPM for 30 min. Unbound biotinylated aptamer probe was rinsed from the plate with three 1×PBS washes and dried as previously described. In following experiments the production of ^3H-ADP from ^3H-ATP was detected from ppERK using streptavidin coated flash plate wells that were incubated with 60 pmol of MK08.112A biotinylated capture probe in 30 μl of PBS Buffer:BupH (0.05% tRNA, 0.025% Tween 20) for 15 min with shaking at 650 RPM. Unbound probe was removed from the plate with three 1×PBS washes and blotted dry as described above. JD37.98A (150 pmol; not biotinylated) minimized ADP aptamer transcribed with capture probe sequence was added to select wells in 30 μl 1×PBS and incubated for 30 min with shaking at shaking at 650 RPM, Unbound probe was removed with three PBS washes and the plates were blotted dry as described above. Kinase reactions were carried out in a 30 μl final sample volume as follows. Stock 15 nM ppERK enzyme solution was prepared in selection buffer and incubated for 10 min at room temperature. Kinase test reactions were initiated by adding 1 μl test sample, e.g., inhibitor, to 14 μl selection buffer containing 1 mM DTT, […], and 2.7 μM ^3H-ATP and then combining this mixture with an equal volume of 15 nM ppERK enzyme solution. Kinase test reaction was immediately transferred to the appropriate test well and the reaction monitored on a TopCount, ^3H SPA scintillation counter over 900 min.

[2] = system: ppERK; test: 96-well high throughput screening (HTS) ppERK kinase assay
Protocol: A 96-well high throughput screening (HTS) ppERK kinase assay was constructed using the ADP F01 aptamer in an SPA. […] This HTS assay was used to assess the relative inhibitory activity of 100 test compounds at 10 μM concentration (FIG. 37). This HTS assay was performed three times (FIGS. 37A, 37B and 37C).

[3] = system: ppERK; test: ADP aptamer F01-based kinase SPA; details: ADP SPA with ADP F01 aptamer; 3H-ATP and MBP; FIG. 34, 35
Text: An ADP aptamer will concentrate the tritiated ADP released by kinase on the surface of the flash plate and generate a scintillation proximity signal detectable in a Topcount instrument.

[4] = Concentration 0.05 (unit not given)
[5] = Concentration 0.1 (unit not given)
[6] = Concentration 0.5 (unit not given)
[7] = Concentration 2.5 (unit not given)
[8] = Concentration 5 (unit not given)
[9] = FIG. 37A, test compounds at 10 μM, 40 nM ppERK, 1.35 μM 3H-ATP, 10 μM MBP
[10] = Concentration 1.8 (unit not given)
[11] = Concentration 3.6 (unit not given)
[12] = Concentration 18 (unit not given)
[13] = Concentration 90 (unit not given)
[14] = Concentration 180 (unit not given)
[15] = Concentration 0.2 (unit not given)
[16] = Concentration 1 (unit not given)
[17] = Concentration 10 (unit not given)

With `Nc1ncnc2c1c(I)cn2[C@@H]1O[C@H](CO)[C@@H](O)[C@H]1O` [ITU] the “20% Reacted Time” value [1, 4] was 57.8 min, the “Initial Rate” value [1, 4] was 46.949 and the “Saturation Time” value [1, 4] was 289 min. The “20% Reacted Time” value [1, 5] was 59.6 min, the “Initial Rate” value [1, 5] was 48.324 and the “Saturation Time” value [1, 5] was 298 min. For the same compound, the “20% Reacted Time” value [1, 6] was 59.6 min, the “Initial Rate” value [1, 6] was 36.486 and the “Saturation Time” value [1, 6] was 298 min. For the same compound, the “20% Reacted Time” value [1, 7] was 83 min, the “Initial Rate” value [1, 7] was 19.275 and the “Saturation Time” value [1, 7] was 415 min. For the same compound, the “20% Reacted Time” value [1, 8] was 113.6 min, the “Initial Rate” value [1, 8] was 10.772 and the “Saturation Time” value [1, 8] was 568 min. For the same compound, the “inhibition of ppERK activity (decreased signal in the ADP SPA)” value [1] was “concentration-dependent inhibition”, the “reaction rate in the HTS ppERK assay” value [2, 9] was “significantly decreased the reaction rate” and the “inhibition of ppERK” value [3] was “concentration-dependent inhibition”.
For `Nc1nccc(-c2c(-c3ccc(F)cc3)ncn2C2CCNCC2)n1` [SB220025], the “20% Reacted Time” value [1, 10] was 92 min, the “Initial Rate” value [1, 10] was 23.883 and the “Saturation Time” value [1, 10] was 460 min. For the same compound, the “20% Reacted Time” value [1, 11] was 101 min, the “Initial Rate” value [1, 11] was 20.427 and the “Saturation Time” value [1, 11] was 505 min. For the same compound, the “20% Reacted Time” value [1, 12] was 117.2 min, the “Initial Rate” value [1, 12] was 4.716 and the “Saturation Time” value [1, 12] was 586 min. For the same compound, the “20% Reacted Time” value [1, 13] was 128 min, the “Initial Rate” value [1, 13] was 2.8722 and the “Saturation Time” value [1, 13] was 640 min. For the same compound, the “20% Reacted Time” value [1, 14] was 180 min, the “Initial Rate” value [1, 14] was 2.3262 and the “Saturation Time” value [1, 14] was 900 min. The “inhibition of ppERK activity (decreased signal in the ADP SPA)” value [1] was “concentration-dependent inhibition” and the “inhibition of ppERK” value [3] was “concentration-dependent inhibition”.
In the case of `CN[C@@H]1C[C@H]2O[C@@](C)([C@@H]1OC)n1c3ccccc3c3c4c(c5c6ccccc6n2c5c31)C(=O)NC4` [staurosporine], the “20% Reacted Time” value [1, 5] is reported as 52.4 min, the “Initial Rate” value [1, 5] is reported as 45.419 and the “Saturation Time” value [1, 5] is reported as 262 min. For the same compound, the “20% Reacted Time” value [1, 15] was 70.4 min, the “Initial Rate” value [1, 15] was 40.907 and the “Saturation Time” value [1, 15] was 352 min. For the same compound, the “20% Reacted Time” value [1, 16] was 52.4 min, the “Initial Rate” value [1, 16] was 23.708 and the “Saturation Time” value [1, 16] was 262 min. For the same compound, the “20% Reacted Time” value [1, 8] was 110 min, the “Initial Rate” value [1, 8] was 10.855 and the “Saturation Time” value [1, 8] was 550 min. The “20% Reacted Time” value [1, 17] was 110 min, the “Initial Rate” value [1, 17] was 5.9375 and the “Saturation Time” value [1, 17] was 550 min. For the same compound, the “reaction rate in the HTS ppERK assay” value [2, 9] was “significantly decreased the reaction rate”, the “reaction rate in the HTS ppERK assay” value ([2]; FIG. 37B (ADP-HH screening)) was “significantly decreased the reaction rate” and the “reaction rate in the HTS ppERK assay” value ([2]; FIG. 37C (ADP-SPA screening (2nd))) was “significantly decreased the reaction rate”.
